Reference: patent publication US9145404B2, “Tetomilast polymorphs” (Otsuka Pharmaceutical Co., Ltd., priority 2006, dated 2015)

What was measured:
[1] = Crystal form after standing at 20° C. to 30° C., examined by powder X-ray diffraction; format: physicochemical; details: left at a temperature between 20° C. and 30° C. for approximately 1 year
Description: (§1) The powder X-ray diffraction spectrum was measured in an angle of diffraction that ranged from 3° to 40°, according to the general test method of the Pharmacopoeia of Japan, using RAD-2B diffractometer (radiation source: CuKα) manufactured by Rigaku Denki. During the measurement, voltage/current was set at 35 kV/20 mA, and the scan speed was set at 5°/min.
(1) The anhydrous tetomilast type B crystal obtained in Reference example 1 (3) was left at a temperature between 20° C. and 30° C. for approximately 1 year, and thereafter, the crystal form thereof was examined by powder X-ray diffraction.

[2] = Transformation of type B crystal to type A crystal while stirred as a suspension in acetone-water, crystal form by powder X-ray diffraction; format: physicochemical; details: 5 g suspended in 40 ml acetone and 10 ml water
Description: as §1
The mixing ratio of a mixture consisting of an anhydrous tetomilast type A crystal and an anhydrous tetomilast type B crystal was obtained by comparing the powder X-ray diffraction spectrum of the above mixture, with the powder X-ray diffraction spectrum of a mixture formed by mixing a pure anhydrous tetomilast type A crystal and a pure anhydrous tetomilast type B crystal at various ratios.
Thermal transformation from an anhydrous tetomilast type B crystal to an anhydrous tetomilast type A crystal was confirmed by the means described in (1) to (3) below:
(§2) (2) 5 g of the anhydrous tetomilast type B crystal obtained in Reference example 1 (3) was suspended in a solution consisting of 40 ml of acetone and 10 ml of water, and the obtained mixture was then stirred at 20° C. At that time, sampling was carried out at intervals of 15 minutes, 30 minutes, 60 minutes, and 120 minutes, and each of the obtained samples was subjected to powder X-ray diffraction to examine the crystal form.
as §2, with “(3)” for “(2)”, “40°” for “20°”, “form. As a result, it could be confirmed that the sample collected after stirring for 15 minutes was a mixture consisting of an anhydrous tetomilast type B crystal and an anhydrous tetomilast type A crystal (A:B=50:50).” for “form.”

In the case of CCOc1ccc(-c2nc(-c3cccc(C(=O)O)n3)cs2)cc1OCC [anhydrous tetomilast type B crystal, 2-(3,4-diethoxyphenyl)-4-(2-carboxy-6-pyridyl)thiazole], the “crystal form by powder X-ray diffraction” value [1] is reported as “maintained the form as an anhydrous tetomilast type B crystal”, the “crystal form by powder X-ray diffraction” value ([2]; stirred at 20° C., 15 minutes) is reported as “maintained the form as an anhydrous tetomilast type B crystal” and the “crystal form by powder X-ray diffraction” value ([2]; stirred at 20° C., 30 minutes) is reported as “maintained the form as an anhydrous tetomilast type B crystal”. For the same molecule, the “crystal form by powder X-ray diffraction” value ([2]; stirred at 20° C., 60 minutes) was “maintained the form as an anhydrous tetomilast type B crystal”, the “crystal form by powder X-ray diffraction” value ([2]; stirred at 40° C., 30 minutes) was “changed to an anhydrous tetomilast type A crystal” and the “crystal form by powder X-ray diffraction” value ([2]; stirred at 40° C., 60 minutes) was “changed to an anhydrous tetomilast type A crystal”. For the same molecule, the “crystal form by powder X-ray diffraction” value ([2]; stirred at 40° C., 120 minutes) was “changed to an anhydrous tetomilast type A crystal”.
